The text below walks through data of patent US5571518A, “Cosmetic compositions containing tricholine citrate” (priority 1995, dated 1996).

Assay type in all cases: cell-based
Series [1] can be described thus: Signs of cytotoxicity in / tolerance by keratinocytes. The conditions noted are these: human, 24 hours exposure, read-out: concentration at which cells showed signs of cytotoxicity. The method, then:
Effects of 24 hours exposure to 0.1 μM to 10 mM of citric acid, choline or the different citrate esters on keratinocyte DNA synthesis are shown in table 1. Rate of DNA synthesis calculated as cpm ^3 H thymidine incorporated into cellular DNA/μg of cell protein is expressed as % of control (no addition controls) ±SD. The actual amount of cpm/μg protein of the control is 1103 ±88.

For series [2], the system named is human keratinocytes. The series is described as follows: 3H choline incorporation into phospholipids of keratinocytes. Particulars: Homo sapiens, Keratinocyte, 48 hours, * statistically significant effects, read-out: 3H choline incorporated into cellular phospholipids. As for the experimental part:
(§1) Human keratinocytes, isolated from neonatal foreskin by trypsin treatment were grown in Dulbecco Modification Eagle (DME) Hams F12 (3:1) medium/5% fetal calf serum in the presence of mitomycin C treated 3T3 mouse fibroblasts for establishing dividing keratinocyte colonies. Cells were grown under the above condition until their second passage and kept frozen for future use. Frozen second passage keratinocytes were thawed and plated into the above medium and grown for five days. On day 5, when the cells were 70-80% confluent, they were trypsinized and plated in the serum-free medium for the various experiments.
Choline acts as an essential nutrient for the cellular phospholipid biosynthesis of keratinocytes. Choline present in the medium is used up by the cells for phospholipid biosynthesis. If TCC provides choline for the cells it will complete with the choline in the medium for incorporation into cellular phospholipids. When cells are incubated with ^3 H-labelled choline, its incorporation into phospholipids will be decreased by the presence of unlabelled choline or TCC in the medium.
[…] The wells were washed, total lipids were extracted using Bleigh Dyer method as described above and the total counts in the chloroform phase was determined. To ascertain that the counts are present only in the phospholipid fraction, the amount of ^3 H choline incorporated into the different lipid fractions were quantitated by running TLC of the fractions in the above solvent system, and the amount of radioactivity in the phospholipid fraction (origin) was quantitated using BioScan plate reader. The cpm of ^3 H choline was plotted against the amount of cold choline or TCC added in the medium to assess the competition between choline supplied from TCC with ^3 H choline.
The amount of ^3 H choline incorporated into cellular phospholipids was determined and expressed as % of controls.

Series [3] concerns human keratinocytes. Kind of series: cells. The conditions noted are these: Keratinocyte, five days, choline-free medium, ±SD, * statistically significant, read-out: Protein. As for the experimental part:
as §1
(§2) 4. The medium was aspirated, and the wells washed with 1 ml phosphate-buffered saline. The DNA and proteins of the cells in the plate were then precipitated by adding 1 ml of ice-cold 10% trichloroacetic acid (TCA). The plates were left on ice for 30 minutes to complete the precipitation process. TCA was then aspirated and each well was then washed four times with 5% TCA. The plates were then dried on a filter pad and the cells in the wells were dissolved in 0.5 ml of 0.1N sodium hydroxide. The sodium hydroxide was then neutralized using 0.1N hydrochloric acid and the solution (1 ml total volume) was then transferred to a scintillation vial. 50 μl samples from each vial were used for protein assay using BCA protein assay reagent obtained from Pierce Chemical Company. 8 ml of a scintillation fluid (Ecolume) was added to the rest of the solution in the vial, and the vials were counted in a scintillation counter to determine the amount of radioactivity in each vial. The DNA synthesis rate was then calculated as cpm ^3 H thymidine incorporated into total cellular DNA/microgram of cell protein for each individual well. Mean and standard deviation for each group was also calculated.
(§3) The aged epidermis may be choline deficient due to the decreased capillary circulation to the skin. To simulate the choline-deficient in vitro system, keratinocytes were plated in complete medium and 48 hours later switched to choline-free medium. The cells were then grown for five days in the choline-free medium with or without addition of different amounts of choline or TCC. To determine whether TCC can provide choline for keratinocyte proliferation under these conditions, on day 5, the amount of ^3 H thymidine incorporation into DNA was determined as in the previous experiment. The protein content of the wells were also quantitated. Both these parameters were expressed as % of control ±SD.

Series [4] deals with human keratinocytes. The series is described as follows: DNA synthesis (3H thymidine incorporation) in keratinocytes in choline-free medium. The conditions noted are these: Keratinocyte. The method, then: as §1
The incorporation of ^3 H-thymidine by cultured keratinocytes was used as an assay of keratinocyte proliferation. Thymidine is one of four deoxynucleosides which are the monomeric units of DNA, the universal library of genetic information in the animal kingdom. Prior to cell division of a somatic cell such as a keratinocyte, the complete genome of the cell undergoing cell division is replicated. This involves large scale DNA synthesis by the cell and enables both daughter cells to receive identical copies of the genetic material. When ^3 H-thymidine is included in the culture media of keratinocytes which are synthesizing DNA in preparation for cell division then the labelled nucleoside is incorporated into the newly synthesized DNA. The extent of incorporation of ^3 H-thymidine into a population of cells is proportional to the rate of DNA synthesis by this population of cells and therefore an indication of their cellular proliferation.
as §2, §3

Turning to `CCOC(=O)CC(O)(CC(=O)OCC)C(=O)OCC` [TEC, triethylcitrate], in series [1], the MCC at 24 h was no less than 1 mM. Also, in the series with human keratinocytes [2], the activity at 10 µM came to 114 ± 9.9%, the activity at 100 µM was 89.2 ± 1.9% and the activity at 1000 µM was found to be 82.8 ± 22%.

On to `C[N+](C)(C)CCO` [Choline, choline], for which the activity at 1 µM in the series on human keratinocytes [3] (120 h, 1 μM) is 197 ± 21.8%; in the series with human keratinocytes [4] (120 h, 1 μM, five days, choline-free medium, ±SD, * statistically significant), 261 ± 5.6%. Also, the activity at 10 µM was 264 ± 50% in the series with human keratinocytes [3] (120 h, 10 μM); 61.6 ± 7.8% with human keratinocytes [2]; 313 ± 11.4% in the series on human keratinocytes [4] (120 h, 10 μM, five days, choline-free medium, ±SD, * statistically significant). Moreover, the activity at 100 µM with human keratinocytes [3] (120 h, 100 μM) came out at 276 ± 52%; in the series on human keratinocytes [2], 36.9 ± 1.6%; in the series on human keratinocytes [4] (120 h, 100 μM, five days, choline-free medium, ±SD, * statistically significant), 315 ± 29.3%. The activity at 1000 µM with human keratinocytes [3] (120 h, 1000 μM) stood at 229 ± 29%; with human keratinocytes [2], 10.8 ± 5.5%; in the series with human keratinocytes [4] (120 h, 1000 μM, five days, choline-free medium, ±SD, * statistically significant), 297 ± 11.3%. The activity at 10000 µM came to 209 ± 13.7% with human keratinocytes [3] (120 h, 10,000 μM) and 270 ± 11.2% in the series on human keratinocytes [4] (120 h, 10,000 μM, five days, choline-free medium, ±SD, * statistically significant). Besides, in the series on human keratinocytes [4] (read-out: lowest concentration that increased proliferation (both DNA synthesis and protein content)), the minimal effective concentration was 1 µM.

As for `CCCCOC(=O)CC(O)(CC(=O)OCCCC)C(=O)OCCCC` [TBC, tributylcitrate], in series [1], the MCC at 24 h is no less than 1 mM. For the same compound, in the series with human keratinocytes [2], the activity at 10 µM was 81.1 ± 7%, the activity at 100 µM is 121 ± 6.7% and the activity at 1000 µM was 81.1 ± 12%.
